According to the supplement of paper PMC13380429:
± gives the standard deviation of the averaged measurements.

Assays:
Conditions in all cases: 72 h
Calu-3 [1] = assay: drug sensitivity score (DSS) for viability; higher = more toxic; extreme values may be limits of the assay
Caco-2 [2] = assay: as above
HepG2 [3] = assay: as above
U2OS [4] = assay: as above
Vero E6 [5] = assay: as above
Calu-3 [6] = assay: cell viability relative to DMSO; higher = less toxic
Caco-2 [7] = assay: as above
HepG2 [8] = assay: as above
U2OS [9] = assay: as above
Vero E6 [10] = assay: as above
Calu-3 [11] = assay: relative viability EC50 (midpoint between 100% and the lowest measured viability); higher = less toxic
Caco-2 [12] = assay: as above
HepG2 [13] = assay: as above
U2OS [14] = assay: as above
Vero E6 [15] = assay: as above

| Structure (SMILES) | drug sensitivity score (Calu-3 [1]) | drug sensitivity score (Caco-2 [2]) | drug sensitivity score (HepG2 [3]) | drug sensitivity score (U2OS [4]) | drug sensitivity score (Vero E6 [5]) | cell viability (Calu-3 [6]; 1 nM) | cell viability (Calu-3 [6]; 10 nM) | cell viability (Calu-3 [6]; 100 nM) | cell viability (Calu-3 [6]; 1000 nM) | cell viability (Calu-3 [6]; 10000 nM) | cell viability (Caco-2 [7]; 1 nM) | cell viability (Caco-2 [7]; 10 nM) | cell viability (Caco-2 [7]; 100 nM) | cell viability (Caco-2 [7]; 1000 nM) | cell viability (Caco-2 [7]; 10000 nM) | cell viability (HepG2 [8]; 1 nM) | cell viability (HepG2 [8]; 10 nM) | cell viability (HepG2 [8]; 100 nM) | cell viability (HepG2 [8]; 1000 nM) | cell viability (HepG2 [8]; 10000 nM) | cell viability (U2OS [9]; 1 nM) | cell viability (U2OS [9]; 10 nM) | cell viability (U2OS [9]; 100 nM) | cell viability (U2OS [9]; 1000 nM) | cell viability (U2OS [9]; 10000 nM) | cell viability (Vero E6 [10]; 1 nM) | cell viability (Vero E6 [10]; 10 nM) | cell viability (Vero E6 [10]; 100 nM) | cell viability (Vero E6 [10]; 1000 nM) | cell viability (Vero E6 [10]; 10000 nM) | relative viability EC50 (Calu-3 [11]) | relative viability EC50 (Caco-2 [12]) | relative viability EC50 (HepG2 [13]) | relative viability EC50 (U2OS [14]) | relative viability EC50 (Vero E6 [15]) |
| --- | --- | --- | --- | --- | --- | --- | --- | --- | --- | --- | --- | --- | --- | --- | --- | --- | --- | --- | --- | --- | --- | --- | --- | --- | --- | --- | --- | --- | --- | --- | --- | --- | --- | --- | --- |
| CC(C)NC[C@@H](O)COc1ccccc1-n1cccc1 (racemic) [isamoltane] | 0 | 0 | 0 | 0 | 0 | 98.2% | 99.2% | 94.9% | 97.1% | 98.3% | 96.3% | 97.7% | 93.1% | 103% | 107% | 97.1% | 100% | 108% | 105% | 104% | 96.8% | 99% | 97.4% | 107% | 102% | 105% | 97.7% | 96.1% | 96.3% | 102% | > 10 µM | > 10 µM | > 10 µM | > 10 µM | > 10 µM |
| CC(C)(O)C(=O)Nc1ccc([N+](=O)[O-])c(C(F)(F)F)c1 [2-hydroxyflutamide] | 0 | 0 | 0 | 0 | 0 | 100% | 97.2% | 97.8% | 101% | 107% | 97.3% | 90.4% | 90% | 96.5% | 87.9% | 97.6% | 99.3% | 92.6% | 98% | 98.1% | 99% | 105% | 103% | 97.1% | 94.6% | 100% | 102% | 102% | 93.9% | 97% | > 10 µM | > 10 µM | > 10 µM | > 10 µM | > 10 µM |
| N=C1N[C@H]2[C@H](CS[C@H]2CCCCC(=O)O)N1 [2-iminobiotin] | 0 | 0 | 0 | 0 | 0 | 105% | 98.8% | 101% | 118% | 106% | 93.6% | 105% | 96.8% | 98.8% | 98% | 100% | 102% | 106% | 97.6% | 106% | 102% | 102% | 99.5% | 104% | 98.3% | 110% | 106% | 105% | 97.5% | 102% | > 10 µM | > 10 µM | > 10 µM | > 10 µM | > 10 µM |
| N[C@H](C(=O)O)c1ccc(O)c(C(=O)O)c1 [3-carboxy-4-hydroxyphenylglycine-(S)] | 0 | 0 | 0 | 0 | 0 | 96.5 ± 5.7% | 89 ± 0.99% | 96 ± 4.8% | 94.2 ± 3% | 101 ± 3% | 95.6 ± 1.8% | 101 ± 1.3% | 95.2 ± 2.6% | 93.4 ± 0.57% | 101 ± 4.5% | 102.2 ± 0.28% | 97.5 ± 5.9% | 98.7 ± 0.28% | 100 ± 2.3% | 100 ± 1.3% | 101 ± 0.71% | 101 ± 1.9% | 103 ± 2.5% | 94.8 ± 4.5% | 102 ± 0.49% | 104 ± 7.1% | 103.7 ± 0.35% | 99 ± 2.3% | 106 ± 3.2% | 101 ± 2.1% | > 10 µM | > 10 µM | > 10 µM | > 10 µM | > 10 µM |
| Cn1cnc(N)c2ncnc1-2 [3-methyladenine] | 0 | 0 | 0 | 0 | 0 | 104% | 101% | 95.2% | 106% | 106% | 99.3% | 94.8% | 108% | 102% | 100% | 103% | 102% | 89.6% | 101% | 90.5% | 103% | 97.1% | 98.3% | 97.9% | 99.8% | 95.1% | 103% | 102% | 96.6% | 96.5% | > 10 µM | > 10 µM | > 10 µM | > 10 µM | > 10 µM |
| C1CCC2(CC1)CCNCC2 [4,4-pentamethylenepiperidine] | 0 | 0 | 0 | 0 | 0 | 99.2% | 96.3% | 109% | 95.1% | 101% | 99.9% | 93% | 97.4% | 91.2% | 102% | 104% | 90.7% | 96% | 102% | 96.7% | 97.2% | 95.3% | 95.2% | 94.9% | 91.7% | 102% | 101% | 100% | 104% | 98.7% | > 10 µM | > 10 µM | > 10 µM | > 10 µM | > 10 µM |
| Cc1cc(=O)oc2c(C=O)c(O)ccc12 [4-mu-8C] | 0 | 0 | 0.6 | 0 | 0 | 102% | 92.7% | 118% | 110% | 97.9% | 98% | 95.5% | 101% | 104% | 87.1% | 106% | 106% | 111% | 87.4% | 89.3% | 107% | 101% | 97.8% | 100% | 99% | 97.6% | 104% | 102% | 102% | 100% | > 10 µM | > 10 µM | > 10 µM | > 10 µM | > 10 µM |
| CC(=O)O[C@@]12CO[C@@H]1C[C@H](O)[C@@]1(C)C(=O)[C@H](O)C3=C(C)[C@@H](O)C[C@@](O)([C@@H](OC(=O)c4ccccc4)[C@H]21)C3(C)C [10-deacetylbaccatin] | 0 | 0 | 0 | 0 | 0 | 105% | 95.6% | 94.9% | 97.4% | 108% | 102% | 110% | 92.6% | 99% | 102% | 93.9% | 105% | 97.3% | 108% | 108% | 98.4% | 99.3% | 104% | 102% | 107% | 97.6% | 96.1% | 95.6% | 95.1% | 106% | > 10 µM | > 10 µM | > 10 µM | > 10 µM | > 10 µM |
| CC(=N)NCc1cccc(CN)c1 [1400W] | 0 | 0 | 0 | 0 | 0 | 102% | 93% | 91.2% | 108% | 109% | 112% | 92.6% | 103% | 92.2% | 103% | 102% | 100% | 105% | 94.4% | 97% | 103% | 94.6% | 104% | 98% | 104% | 103% | 98.3% | 99.9% | 102% | 97.7% | > 10 µM | > 10 µM | > 10 µM | > 10 µM | > 10 µM |
| COc1c(Nc2ccc(S(C)(=O)=O)nc2C)ncnc1OC1CCN(C(=O)OC(C)C)CC1 [APD597] | 0 | 0 | 0.1 | 0 | 0 | 106% | 105% | 106% | 109% | 98.7% | 96.5% | 96.2% | 103% | 93.4% | 90.2% | 99.6% | 104% | 94.4% | 94.6% | 86.3% | 99.5% | 99.1% | 99.6% | 99.7% | 100% | 106% | 98.2% | 97% | 100% | 95.5% | > 10 µM | > 10 µM | > 10 µM | > 10 µM | > 10 µM |
| COc1cc(OC)cc(-c2ccc3c(-c4ccc(F)cc4)n[nH]c3n2)c1 [APcK-110] | 0 | 0 | 0 | 0 | 0 | 99.5% | 110% | 104% | 103% | 97.3% | 94.5% | 98.3% | 97.6% | 96.3% | 99.9% | 99.8% | 90.1% | 101% | 98.1% | 107% | 93.5% | 99.5% | 97.9% | 99.9% | 103% | 99.1% | 89.9% | 97.1% | 93.3% | 108% | > 10 µM | > 10 µM | > 10 µM | > 10 µM | > 10 µM |
| COc1ccc(-c2ccc3c(N4CCOC[C@@H]4C)nc(N4CCOC[C@@H]4C)nc3n2)cc1CO [AZD8055] | 23 | 18.8 | 19.7 | 20 | 15 | 101% | 83.7% | 37.6% | 26.4% | 27.2% | 94.3% | 88.2% | 54% | 34.6% | 28.2% | 99.4% | 90.8% | 54.7% | 27.1% | 18.9% | 99% | 102% | 57.5% | 22.8% | 16.1% | 96.9% | 89.7% | 69.9% | 40.1% | 30.3% | 0.0265 µM | 0.0545 µM | 0.0808 µM | 0.101 µM | 0.123 µM |
| C[C@@H](Nc1cc(F)cc(F)c1)c1cc(C(=O)N(C)C)cc2c(=O)cc(N3CCOCC3)oc12 [AZD8186] | 6.4 | 8.8 | 1.5 | 1.7 | 3.8 | 88.4% | 100% | 82.8% | 76.4% | 47.8% | 90.7% | 78.2% | 84.1% | 75.3% | 48% | 101% | 92.2% | 96.5% | 92% | 75.7% | 96.2% | 97.3% | 96.8% | 87.9% | 76.9% | 96.8% | 95.6% | 89.2% | 78.9% | 75% | 0.6 µM | 0.2 µM | > 10 µM | > 10 µM | > 10 µM |
| CCCCC(=O)O[C@]1(C(=O)CO)[C@@H](C)C[C@H]2[C@@H]3CCC4=CC(=O)C=C[C@]4(C)[C@@]3(F)[C@@H](O)C[C@@]21C [BETAMETHASONE VALERATE] | 0 | 0 | 0.6 | 0 | 0 | 105% | 101% | 95.2% | 93.7% | 117% | 103% | 86.2% | 113% | 110% | 96.1% | 107% | 114% | 90% | 107% | 76.4% | 95.8% | 96.2% | 95% | 94.8% | 92.4% | 105% | 102% | 95.4% | 91.1% | 95.6% | > 10 µM | > 10 µM | > 10 µM | > 10 µM | > 10 µM |
